From patent US20250228239A1, “MOLECULES HAVING PESTICIDAL UTILITY, AND INTERMEDIATES, COMPOSITIONS, AND PROCESSES, RELATED THERETO” (priority 2024, published 2025)
Read-outs that look alike come from different tables or passages of the source.

Columns and labels:
Format in all cases: in vivo
[1] = tested on: Yellow Fever Mosquito (Aedes aegypti, AEDSAE); settings: Yellow Fever Mosquito; for YFM: rating class; for YFM rating: Table ABC / ABC-DP rating
Method in brief: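 Rating-scale grades reflect larval mortality scored per well after 3 days at room temperature under non-evaporative lids. Larvae (~1 day old, hatched overnight in liver-powder water) were added to six daughter plates per compound, prepared from a 4000 ppm DMSO stock diluted in 90:10 water/acetone.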

[2] = tested on: Beet Armyworm (Spodoptera exigua, LAPHEG); test: Bioassays on Beet Armyworm (BAW), 128-well diet tray assay; settings: Spodoptera exigua, Beet Armyworm
Method in brief: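 Test molecule was dissolved in 90:10 acetone-water and applied at 50 μg/cm^2 onto artificial diet in eight wells, then dried. Second instar larvae, one to five per well, were added, and trays were kept vented at 25° C. with a 14:10 photoperiod for five to seven days before mortality was recorded.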

[3] = tested on: Cabbage Looper (Trichoplusia ni, TRIPNI); test: Bioassays on Cabbage Looper (CL), 128-well diet tray assay; settings: Trichoplusia ni, Cabbage Looper
Method in brief: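 Percent mortality, averaged across eight replicate wells, after second-instar larvae (1–5 per well) fed for five to seven days on diet dosed at 50 μg/cm^2. Compound was applied in acetone-water 90:10 and dried; trays kept vented at 25° C under 14:10 photoperiod.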

[4] = Table ABC / ABC-DP rating, read-out: BAW rating
[5] = Table ABC / ABC-DP rating, read-out: CL rating

Row | SMILES | YFM [1] | pest or weed control at 50 µg/cm2 ([2]; rating class, read-out: BAW) [%] | pest or weed control at 50 µg/cm2 ([3]; rating class, read-out: CL) [%] | YFM rating [1] | pest or weed control at 50 µg/cm2 [2, 4] [%] | pest or weed control at 50 µg/cm2 [3, 5] [%]
1 | O=C(Nc1ccc(F)c(NC(=O)C(F)F)c1F)c1cc(NC(=O)[C@H]2[C@H](c3cccc(Br)c3)C2(Cl)Cl)ccc1Cl (relative stereo) [F1600, trans-5-(3-(3-Bromophenyl)-2,2-dichlorocyclopropane-1-carboxamido)-2-chloro-N-(3-(2,2-difluoroacetamido)-2,4-difluorophenyl)benzamide] | A (80–100) | 50 to 100 | 50 to 100 |  |  | 
2 | O=C(Nc1ccc(F)c(NC(=O)C(F)F)c1F)c1cc(NC(=O)[C@H]2[C@H](c3cccc(Cl)c3)C2(Cl)Cl)ccc1Cl (relative stereo) [F1601, trans-2-Chloro-5-(2,2-dichloro-3-(3-chlorophenyl)cyclopropane-1-carboxamido)-N-(3-(2,2-difluoroacetamido)-2,4-difluorophenyl)benzamide] | A (80–100) | 50 to 100 | 50 to 100 |  |  | 
3 | O=C(Nc1ccc(F)c(NC(=O)C(F)F)c1F)c1cc(NC(=O)[C@H]2[C@H](c3cccc(F)c3)C2(Cl)Cl)ccc1Cl (relative stereo) [F1602, trans-2-Chloro-5-(2,2-dichloro-3-(3-fluorophenyl)cyclopropane-1-carboxamido)-N-(3-(2,2-difluoroacetamido)-2,4-difluorophenyl)benzamide] | A (80–100) | 50 to 100 | 50 to 100 |  |  | 
4 | O=C(Nc1ccc(F)c(NC(=O)C(F)F)c1F)c1cc(NC(=O)[C@H]2[C@H](c3cc(Cl)cc(Br)c3)C2(Cl)Cl)ccc1Cl (relative stereo) [F1618, trans-5-(3-(3-Bromo-5-chlorophenyl)-2,2-dichlorocyclopropane-1-carboxamido)-2-chloro-N-(3-(2,2-difluoroacetamido)-2,4-difluorophenyl)benzamide] | A (80–100) | 50 to 100 | 50 to 100 |  |  | 
5 | CC(=O)Nc1cc(F)c(F)cc1NC(=O)c1cc(NC(=O)[C@H]2[C@H](c3cc(Cl)cc(Cl)c3)C2(Cl)Cl)ccc1Cl (relative stereo) [F1634, trans-N-(2-Acetamido-4,5-difluorophenyl)-2-chloro-5-(2,2-dichloro-3-(3,5-dichlorophenyl)cyclopropane-1-carboxamido)benzamide] | B (More than 0 – Less than 80) | 50 to 100 | 50 to 100 |  |  | 
6 | CC(=O)Nc1cc(F)ccc1NC(=O)c1cc(NC(=O)[C@H]2[C@H](c3cc(Cl)cc(Cl)c3)C2(Cl)Cl)ccc1Cl (relative stereo) [F1637, trans-N-(2-Acetamido-4-fluorophenyl)-2-chloro-5-(2,2-dichloro-3-(3,5-dichlorophenyl)cyclopropane-1-carboxamido)benzamide] | B (More than 0 – Less than 80) | 50 to 100 | 50 to 100 |  |  | 
7 | Nc1c(F)ccc(NC(=O)c2cc(NC(=O)[C@H]3[C@H](c4cc(C(F)(F)F)cc(C(F)(F)F)c4)C3(Cl)Cl)ccc2Cl)c1F (relative stereo) [F1791, trans-N-(3-Amino-2,4-difluorophenyl)-5-(3-(3,5-bis(trifluoromethyl)phenyl)-2,2-dichlorocyclopropane-1-carboxamido)-2-chlorobenzamide] |  |  |  | A (80–100) | 50 to 100 | 50 to 100
8 | O=C(Nc1ccc(F)c(NC(=O)C(F)(F)F)c1F)c1cc(NC(=O)[C@H]2[C@H](c3cc(C(F)(F)F)cc(C(F)(F)F)c3)C2(Cl)Cl)ccc1Cl (relative stereo) [F1801, trans-5-(3-(3,5-bis(Trifluoromethyl)phenyl)-2,2-dichlorocyclopropane-1-carboxamido)-2-chloro-N-(2,4-difluoro-3-(2,2,2-trifluoroacetamido)phenyl)benzamide] |  |  |  | A (80–100) | 50 to 100 | 50 to 100
9 | O=C(Nc1ccc(F)c(NC(=O)C(F)F)c1F)c1cc(NC(=O)[C@H]2[C@H](c3cc(C(F)(F)F)cc(C(F)(F)F)c3)C2(Cl)Cl)ccc1Cl (relative stereo) [F1802, trans-5-(3-(3,5-bis(Trifluoromethyl)phenyl)-2,2-dichlorocyclopropane-1-carboxamido)-2-chloro-N-(3-(2,2-difluoroacetamido)-2,4-difluorophenyl)benzamide] |  |  |  | A (80–100) | 50 to 100 | 50 to 100
10 | CC(=O)Nc1c(F)ccc(NC(=O)c2cc(NC(=O)[C@H]3[C@H](c4cc(C(F)(F)F)cc(C(F)(F)F)c4)C3(Cl)Cl)ccc2Cl)c1F (relative stereo) [F1803, trans-N-(3-Acetamido-2,4-difluorophenyl)-5-(3-(3,5-bis(trifluoromethyl)phenyl)-2,2-dichlorocyclopropane-1-carboxamido)-2-chlorobenzamide] |  |  |  | A (80–100) | 50 to 100 | 50 to 100
11 | O=C(COC(F)(F)F)Nc1c(F)ccc(NC(=O)c2cc(NC(=O)[C@H]3[C@H](c4cc(C(F)(F)F)cc(C(F)(F)F)c4)C3(Cl)Cl)ccc2Cl)c1F (relative stereo) [F1804, trans-5-(3-(3,5-bis(Trifluoromethyl)phenyl)-2,2-dichlorocyclopropane-1-carboxamido)-2-chloro-N-(2,4-difluoro-3-(2-(trifluoromethoxy)acetamido)phenyl)benzamide] |  |  |  | A (80–100) | 50 to 100 | 50 to 100
12 | O=C(Nc1ccc(F)c(NC(=O)C2CCCO2)c1F)c1cc(NC(=O)[C@H]2[C@H](c3cc(C(F)(F)F)cc(C(F)(F)F)c3)C2(Cl)Cl)ccc1Cl (relative stereo) [F1805, trans-N-(3-(5-(3-(3,5-bis(Trifluoromethyl)phenyl)-2,2-dichlorocyclopropane-1-carboxamido)-2-chlorobenzamido)-2,6-difluorophenyl)tetrahydrofuran-2-carboxamide] |  |  |  | A (80–100) | 50 to 100 | 50 to 100
13 | CCCC(=O)Nc1c(F)ccc(NC(=O)c2cc(NC(=O)[C@H]3[C@H](c4cc(C(F)(F)F)cc(C(F)(F)F)c4)C3(Cl)Cl)ccc2Cl)c1F (relative stereo) [F1806, trans-5-(3-(3,5-bis(Trifluoromethyl)phenyl)-2,2-dichlorocyclopropane-1-carboxamido)-N-(3-butyramido-2,4-difluorophenyl)-2-chlorobenzamide] |  |  |  | A (80–100) | 50 to 100 | 50 to 100
14 | O=C(Nc1ccc(F)c(NC(=O)C(F)(F)C(F)(F)C(F)(F)F)c1F)c1cc(NC(=O)[C@H]2[C@H](c3cc(C(F)(F)F)cc(C(F)(F)F)c3)C2(Cl)Cl)ccc1Cl (relative stereo) [F1825, trans-5-(3-(3,5-bis(Trifluoromethyl)phenyl)-2,2-dichlorocyclopropane-1-carboxamido)-2-chloro-N-(2,4-difluoro-3-(2,2,3,3,4,4,4-heptafluorobutanamido)phenyl)benzamide] |  |  |  | A (80–100) | 50 to 100 | 50 to 100
15 | O=C(NCC(F)(F)F)c1cc(NC(=O)[C@H]2[C@H](c3cc(C(F)(F)F)ccc3Cl)C2(Cl)Cl)ccc1Cl (relative stereo) [F2001, trans-2-Chloro-5-(2,2-dichloro-3-(2-chloro-5-(trifluoromethyl)phenyl)-cyclopropane-1-carboxamido)-N-(2,2,2-trifluoroethyl)benzamide] |  |  |  | A (80–100) | 50 to 100 | 50 to 100
16 | O=C(NCC(F)(F)F)c1cc(NC(=O)[C@H]2[C@H](c3c(F)c(F)c(F)c(F)c3F)C2(Cl)Cl)ccc1Cl (relative stereo) [F2002, trans-2-Chloro-5-(2,2-dichloro-3-(perfluorophenyl)cyclopropane-1-carboxamido)-N-(2,2,2-trifluoroethyl)benzamide] |  |  |  | A (80–100) | 50 to 100 | 50 to 100
17 | O=C(NCC(F)(F)F)c1cc(NC(=O)[C@H]2[C@H](c3cc(F)c(F)c(Br)c3)C2(Cl)Cl)ccc1Cl (relative stereo) [F2003, trans-5-(3-(3-Bromo-4,5-difluorophenyl)-2,2-dichlorocyclopropane-1-carboxamido)-2-chloro-N-(2,2,2-trifluoroethyl)benzamide] |  |  |  | A (80–100) | 50 to 100 | 50 to 100
18 | O=C(NCC(F)(F)F)c1cc(NC(=O)[C@H]2[C@@H](c3cc(F)c(F)c(Br)c3)C2(Cl)Cl)ccc1Cl (relative stereo) [F2004, cis-5-(3-(3-Bromo-4,5-difluorophenyl)-2,2-dichlorocyclopropane-1-carboxamido)-2-chloro-N-(2,2,2-trifluoroethyl)benzamide] |  |  |  | A (80–100) | 50 to 100 | 50 to 100
19 | O=C(NCC(F)(F)C(F)(F)F)c1c(Cl)ccc(NC(=O)[C@H]2[C@H](c3ccc(F)c(Cl)c3)C2(Cl)Cl)c1Cl (relative stereo) [F2005, trans-2,6-Dichloro-3-(2,2-dichloro-3-(3-chloro-4-fluorophenyl)cyclopropane-1-carboxamido)-N-(2,2,3,3,3-pentafluoropropyl)benzamide] |  |  |  | A (80–100) | 50 to 100 | 50 to 100
